From ChEMBL document CHEMBL3868606, “Novel 5-nitropyrimidine derivatives bearing endo-azabicyclic alcohols/amines as potent GPR119 agonists” (Bioorg Med Chem, 2017)

Key:
[1] = target: T1, Glucose-dependent insulinotropic receptor (Homo sapiens, UniProt Q8TDV5); test: Agonist activity at human GPR119 expressed in HEK293 cells assessed as stimulation of cAMP level measured after 60 mins by HTRF assay; type: functional, cell-based
T1 sequence (Q8TDV5 whole entry): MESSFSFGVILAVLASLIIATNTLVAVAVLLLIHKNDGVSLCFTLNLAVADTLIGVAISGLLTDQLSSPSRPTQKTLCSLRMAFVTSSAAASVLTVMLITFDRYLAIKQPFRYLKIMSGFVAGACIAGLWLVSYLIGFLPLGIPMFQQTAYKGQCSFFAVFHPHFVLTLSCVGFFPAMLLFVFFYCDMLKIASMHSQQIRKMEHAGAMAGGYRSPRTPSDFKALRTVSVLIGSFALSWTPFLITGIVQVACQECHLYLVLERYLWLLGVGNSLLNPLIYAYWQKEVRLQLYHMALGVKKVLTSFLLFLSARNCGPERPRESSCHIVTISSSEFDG

[2] = target: T2, Glucose-dependent insulinotropic receptor (Homo sapiens) (UniProt Q8TDV5); test: Agonist activity at human GPR119 expressed in HEK293 cells assessed as stimulation of cAMP level measured after 60 mins by HTRF assay relative to OEA; type: functional, cell-based
T2 sequence (whole entry): T1 sequence (Q8TDV5 whole entry)

Row | EC50 [1] | Emax [2] | Compound
1 | > 2000 nM | 24.8% | CS(=O)(=O)c1ccc(Nc2ncnc(NC3C[C@H]4CC[C@H](C3)N4S(=O)(=O)c3ccc(F)cc3)c2[N+](=O)[O-])c(F)c1 (some centres undefined)
2 | 3.5 nM | 88.8% | CS(=O)(=O)c1ccc(Nc2ncnc(OC3C[C@H]4CC[C@H](C3)N4S(=O)(=O)c3ccc(F)cc3)c2[N+](=O)[O-])c(F)c1 (some centres undefined)
3 | 0.6 nM | 103% | CC(C)OC(=O)N1[C@@H]2CC[C@@H]1CC(Oc1ncnc(Nc3ccc(S(C)(=O)=O)cc3F)c1[N+](=O)[O-])C2 (relative stereo)
4 | > 2000 nM | 49.5% | CS(=O)(=O)c1ccc(Nc2ncnc(NC3C[C@H]4CC[C@H](C3)N4S(C)(=O)=O)c2[N+](=O)[O-])c(F)c1 (relative stereo)
5 | 44.2 nM | 89.8% | CC(C)(C)OC(=O)N1[C@@H]2CC[C@@H]1CC(Oc1ncnc(Oc3ccccc3Cl)c1[N+](=O)[O-])C2 (relative stereo)
6 | 1.6 nM | 117% | CS(=O)(=O)c1ccc(Nc2ncnc(OC3C[C@H]4CC[C@H](C3)N4S(C)(=O)=O)c2[N+](=O)[O-])c(F)c1 (relative stereo)
7 | 1.3 nM | 114% | CC(C)(C)OC(=O)N1[C@@H]2CC[C@@H]1CC(Nc1ncnc(Nc3ccc(C#N)cc3F)c1[N+](=O)[O-])C2 (relative stereo)
8 | 1.5 nM | 99% | CC(C)(C)OC(=O)N1[C@@H]2CC[C@@H]1CC(Nc1ncnc(Nc3ccc(S(C)(=O)=O)cc3F)c1[N+](=O)[O-])C2 (relative stereo)
9 | > 2000 nM | 25.1% | CS(=O)(=O)c1ccc(Nc2ncnc(NC3C[C@H]4CC[C@H](C3)N4C(=O)OCC3CC3)c2[N+](=O)[O-])c(F)c1 (relative stereo)
10 | > 2000 nM | 32.5% | CCOC(=O)N1[C@@H]2CC[C@@H]1CC(Nc1ncnc(Nc3ccc(S(C)(=O)=O)cc3F)c1[N+](=O)[O-])C2 (relative stereo)
11 | 6.2 nM | 54.5% | CC(C)OC(=O)N1[C@@H]2CC[C@@H]1CC(Nc1ncnc(Nc3ccc(S(C)(=O)=O)cc3F)c1[N+](=O)[O-])C2 (relative stereo)
12 | > 2000 nM | 37.2% | CC(C)(C)OC(=O)N1[C@@H]2CC[C@@H]1CC(Nc1ncnc(Oc3ccccc3Cl)c1[N+](=O)[O-])C2 (relative stereo)
13 | 1.5 nM | 116% | CC(C)(C)OC(=O)N1[C@@H]2CC[C@@H]1CC(Oc1ncnc(Nc3ccc(S(C)(=O)=O)cc3F)c1[N+](=O)[O-])C2 (relative stereo)
14 | > 2000 nM | 21.3% | CS(=O)(=O)c1ccc(Nc2ncnc(OC3C[C@H]4CC[C@H](C3)N4C(=O)OCC3CC3)c2[N+](=O)[O-])c(F)c1 (relative stereo)
15 | 205 nM | 59% | CC(C)(C)OC(=O)N1[C@@H]2CC[C@@H]1CC(Nc1ncnc(Nc3ccc(C#N)cc3Cl)c1[N+](=O)[O-])C2 (relative stereo)
16 | 1.4 nM | 116% | CCOC(=O)N1[C@@H]2CC[C@@H]1CC(Oc1ncnc(Nc3ccc(S(C)(=O)=O)cc3F)c1[N+](=O)[O-])C2 (relative stereo)
17 | > 2000 nM | 46.2% | CC(C)(C)OC(=O)N1[C@@H]2CC[C@@H]1CC(Nc1ncnc(Nc3ccccc3C#N)c1[N+](=O)[O-])C2 (relative stereo)
